{
  "source": "patent US6365216B1",
  "about": "“Particles of N-[N-(3,3-dimethylbutyl)-L-α-aspartyl]-L-phenylalanine 1-methyl ester” (The NutraSweet Company, priority 1999, dated 2002)",
  "origin": "cited, not measured here",
  "conditions": "times sweeter than sugar (sucrose)",
  "data": [
    {"molecule": "COC(=O)C(Cc1ccccc1)NC(=O)C(CC(=O)O)NCCC(C)(C)C", "note": "[neotame, N-[N-(3,3-dimethylbutyl)-L-α-aspartyl]-L-phenylalanine 1-methyl ester]", "values": [
      {"measurement": "sweetness potency", "result": "about 8000 X"}
    ]}
  ]
}
